Laboratory results as given in US20210395256A1, “TYROSINE KINASE INHIBITORS, COMPOSITIONS AND METHODS THERE OF” (Betta Pharmaceuticals Co., Ltd., priority 2018, published 2021).
pIC50: −log10 of the molar value. Like-named read-outs stand apart in the source and are kept apart here.

How the values were obtained:
NTRK1-G595R = NTRK1-G595R (Homo sapiens, UniProt P04629, G595R); assay: NTRK1-G595R cell proliferation assay (Table 13); type: cell-based
TrkA kinase = TrkA kinase (Homo sapiens, UniProt P04629); assay: TrkA kinase assay (mobility shift assay); type: biochemical; details: read-out: Trk A Kinase IC50
Sequence of TrkA kinase (P04629 33-796): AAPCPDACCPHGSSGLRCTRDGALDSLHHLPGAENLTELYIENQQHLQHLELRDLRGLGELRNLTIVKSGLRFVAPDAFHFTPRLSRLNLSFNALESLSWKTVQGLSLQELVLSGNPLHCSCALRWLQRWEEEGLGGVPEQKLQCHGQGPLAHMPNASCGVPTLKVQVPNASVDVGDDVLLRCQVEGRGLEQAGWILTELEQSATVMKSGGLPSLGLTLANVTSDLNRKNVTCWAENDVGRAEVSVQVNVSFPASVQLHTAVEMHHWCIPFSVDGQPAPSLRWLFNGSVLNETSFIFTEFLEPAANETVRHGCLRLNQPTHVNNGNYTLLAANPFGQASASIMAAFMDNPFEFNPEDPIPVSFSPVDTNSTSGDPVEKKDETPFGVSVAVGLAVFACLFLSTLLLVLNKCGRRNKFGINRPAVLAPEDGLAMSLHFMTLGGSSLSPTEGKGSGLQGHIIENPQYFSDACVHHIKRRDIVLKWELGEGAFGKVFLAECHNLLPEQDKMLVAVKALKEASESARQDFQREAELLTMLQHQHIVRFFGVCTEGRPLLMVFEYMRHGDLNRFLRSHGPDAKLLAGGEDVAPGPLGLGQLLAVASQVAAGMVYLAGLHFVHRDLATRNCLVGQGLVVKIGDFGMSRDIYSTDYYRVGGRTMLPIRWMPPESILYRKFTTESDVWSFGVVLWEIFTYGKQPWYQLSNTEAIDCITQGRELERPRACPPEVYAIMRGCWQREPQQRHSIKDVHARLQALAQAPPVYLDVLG
Procedure, shortened: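 Ten-point compound series was preincubated 10 min at room temperature with TrkA, then FAM-peptide plus ATP added in HEPES pH 7.5/Brij-35 buffer and reacted at 28 °C before EDTA quench.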

Ba/F3-TPM3-NTRK1 = molecular target: T1, Ba/F3-TPM3-NTRK1 (Homo sapiens, UniProt P04629); assay: Ba/F3-TPM3-NTRK1 cells proliferation assay; type: cell-based; details: 72 h, CellTiter Glo
T1 construct: expressed in transfected cells; host or cells: Ba/F3; the other entry of the earlier key: TPM3 (P06753, Tropomyosin alpha-3 chain)
T1 sequence (P04629 510-796 limits assumed): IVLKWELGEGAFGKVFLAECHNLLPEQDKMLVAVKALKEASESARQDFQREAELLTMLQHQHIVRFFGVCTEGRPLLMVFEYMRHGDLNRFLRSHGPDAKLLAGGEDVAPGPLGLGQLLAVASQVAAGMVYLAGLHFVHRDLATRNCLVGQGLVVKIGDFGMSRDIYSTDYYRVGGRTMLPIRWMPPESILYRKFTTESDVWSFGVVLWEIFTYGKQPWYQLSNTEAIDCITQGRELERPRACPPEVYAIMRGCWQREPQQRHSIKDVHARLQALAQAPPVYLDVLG
Procedure: Example 202 Ba/F3-TPM3-NTRK1 and Ba/F3-ETV6-NTRK3 cells proliferation assay
Cell line: Ba/F3 cells with TPM3-NTRK1 or ETV6-NTRK3 fusion mutation gene stably overexpressed named Ba/F3-TPM3-NTRK1 and Ba/F3-ETV6-NTRK3.
RPMI 1640 and 10% FBS and 1% PS and 2 ug/mL puromycin.
b) Collect cell to a 15 mL centrifuged tube, centrifuge at 1000 rpm for 5 min. Discard the supernatant, count, and make the cell density at 1.49×10^4 cells/mL, then place it in a 37° C., 5% CO2 incubator.
a) The test compound (20 mM stock solution) was diluted to 60 μM with 100% DMSO as starting concentration then 3-fold serial diluted with “9+0” concentrations. in a 96-well dilution plate (Thermo, Cat. No. 249944);
b) The above compound solution was diluted 1:20 times with culture medium to prepare a 10 fold working solution;
a) Take cells in log phase growth, centrifuge at 1000 rpm for 5 min, then resuspend the cells with culture medium, then count cells;
b) Cells were seeded to 96-well cell culture plate with density at 2000 cells/well;
a) Compounds prepared at step 2 were added to cell plate with 15 μL per well, the final concentrations were 300, 100, 33.33, 11.11, 3.70, 1.23, 0.41, 0.14, 0.05 and 0 nM, and the final concentration of DMSO was 0.5%. The blank control well was a culture medium (0.5% DMSO);
c) The cells were incubated for an additional 72 h in the incubator.
a) Remove the 96-well cell culture plate and add 50 μl of CTG reagent (CellTiter Glo kit, promega, Cat #G7573).
b) Plate was shaked for 2 min and then let it cool for 30 min at room temperature.
c) The Luminescence signal value was read using a PerkinElmer reader.
Experimental Data Analysis
Data were analyzed using GraphPad Prism 6.0 software to obtain a fitted curve of compound activity.
Fit the Compound IC50 from non-linear regression equation:
Y=Bottom+(Top-Bottom)/(1+10^((Log IC50-X)×HillSlope));
X: The log of the concentration of the compound; Y: Luminescence value.

[1] = Liver microsomes metabolic stability assay, rat; type: in vitro ADME; details: male, rat liver microsomes 0.5 mg/mL, 37° C.; for half-life at 2 μM: read-out: t1/2 Rat
Procedure: (§1) Example 203 Liver Microsomes Metabolic Stability Assay
(§2) Pooled human liver microsomes (Cat. 452117) were purchased from Corning. Pooled male rat liver microsomes (Cat. R1000) and pooled male mouse liver microsomes (Cat. M1000) were purchased from XENOTECH. Microsomes were stored at −80° C.
(§3) 1) Make a master solution containing phosphate buffer, ultra-pure H2O and MgCl2 solution according to Table 14.
(§4) 2) Two separated experiments were performed as follows.
(§5) a) With NADPH: 10 μL of 20 mg/mL liver microsomes and 40 μL of 10 mM NADPH were added to the incubations. The final concentrations of microsomes and NADPH were 0.5 mg/mL and 1 mM, respectively.
(§6) b) Without NADPH: 10 μL of 20 mg/mL liver microsomes and 40 μL of ultra-pure H2O were added to the incubations. The final concentration of microsomes was 0.5 mg/mL.
(§7) 3) The reaction was started with the addition of 4 μL test compounds solutions or control compound solution (verapamil) at the final concentration of 2 μM and carried out at 37° C.
(§8) 4) Aliquots of 50 μL were taken from the reaction solution at 0, 15, 30, 45 and 60 min. The reaction solutions were stopped by the addition of 4 volumes of cold acetonitrile with 1S (100 nM alprazolam, 200 nM caffeine, 200 nM labetalol and 2 μM ketoprofen). Samples were centrifuged at 3,220 g for 40 minutes. Aliquot of 100 μL of the supernatant was mixed with 100 μL of ultra-pure H2O and then used for LC-MS/MS analysis. All experiments were performed in duplicate.
(§9) The slope value, k, was determined by linear regression of the natural logarithm of the remaining percentage of the parent drug vs. incubation time curve.
(§10) The in vitro half-life (in vitro t1/2) was determined from the slope value:
(§11) Conversion of the in vitro t1/2 (in min) into the in vitro intrinsic clearance (in vitro CLint, in μL/min/mg proteins) was done using the following equation (mean of duplicate determinations): […]
(§12) The control compound (verapamil) was included in the assay. Any value of the compounds that was not within the specified limits will be rejected and the experiment will be repeated.

[2] = Liver microsomes metabolic stability assay, human; type: in vitro ADME; details: human liver microsomes 0.5 mg/mL, 37° C.; for half-life at 2 μM: read-out: t1/2 Human
Procedure: as §1, §2, §3, §4, §5, §6, §7, §8, §9, §10, §11, §12

[3] = Liver microsomes metabolic stability assay, mouse; type: in vitro ADME; details: male, mouse liver microsomes 0.5 mg/mL, 37° C.; for half-life at 2 μM: read-out: t1/2 Mouse
Procedure: as §1, §2, §3, §4, §5, §6, §7, §8, §9, §10, §11, §12

[4] = Plasma protein binding (equilibrium dialysis), mouse; type: in vitro ADME; details: pH 7.4, 6 hours dialysis; for fraction unbound at 6 h, 1 μM: read-out: Mean % Bound Mouse (converted)
Procedure: (§13) Example 204 Plasma Protein Binding Measurements
(§14) The plasma protein binding was measured as the following procedure.
(§15) 1) Preparation of 100 mM sodium phosphate and 150 mM NaCl buffer (PBS)
(§16) A basic solution was prepared by dissolving 14.2 g/L Na2HPO4 and 8.77 g/L NaCl in deionized water and the solution could be stored at 4° C. for up to 7 days. An acidic solution was prepared by dissolving 12.0 g/L NaH2PO4 and 8.77 g/L NaCl in deionized water and the solution could be stored at 4° C. for up to 7 days. The basic solution was titrated with the acidic solution to pH 7.4 and store at 4° C. for up to 7 days. pH was checked on the day of experiment and was adjusted if outside specification of 7.4±0.1.
(§17) Frozen plasma was thawed immediately at room temperature.
(§18) The plasma was centrifuged at 3,220 g for 10 minutes to remove clots and supernatant was collected into a fresh tube. The pH of the plasma was checked and recorded.
(§19) Note: a). Only use plasma that has been thawed no more than twice since arrival. b). Only use plasma within the range of pH 7 to pH 8.
(§20) 3) Preparation of working solutions
(§21) The working solutions of test compounds and control compound ketoconazole were prepared in DMSO at the concentration of 200 μM. And then 3 μL of working solution was removed to mix with 597 μL of human, rat or mouse plasma to achieve a final concentration of 1 μM (0.5% DMSO). Plasma samples were vortexed thoroughly.
(§22) 4) Preparation of dialysis membranes
(§23) The dialysis membranes were soaked in ultrapure water for 60 minutes to separate strips, then in 20% ethanol for 20 minutes, finally in dialysis buffer for 20 minutes.
(§24) 5) Procedure for equilibrium dialysis
(§25) The dialysis apparatus was assembled according to the manufacturer's instruction. Each cell was filled with 120 μL of plasma sample and dialyzed against equal volume of dialysis buffer (PBS). The assay was performed in duplicate. The dialysis plate was sealed and incubated in an incubator at 37° C. with 5% CO2 at 100 rpm for 6 hours. At the end of incubation, seal was removed and 50 μL of samples from both buffer and plasma chambers were transferred to wells of a 96-well plate.
(§26) 6) Procedure for sample analysis
(§27) 50 μL of blank plasma was added to each buffer samples and an equal volume of PBS was supplemented to the collected plasma sample. 300 μL of room temperature quench solution (acetonitrile containing internal standards (1S, 100 nM Alprazolam, 500 nM Labetalol and 2 μM Ketoprofen)) was added to precipitate protein. Samples in plate were vortexed for 5 minutes and centrifuged at 3,220 g for 30 minutes at 4° C. And then 100 μL of the supernatant was transferred to a new 96-well plate with 100 μL or 200 μL water (depends on the LC-MS signal response and peak shape) for LC-MS/MS analysis.
(§28) Calculate the percentages of test compound and control compound bound as follows:
(§29) % Free=(Peak Area Ratiobuffer chamber/Peak Area Ratioplasma chamber)*100
(§30) % Recovery=(Peak Area Ratiobuffer chamber+Peak Area Ratioplasma chamber)/Peak Area Ratio total sample*100
(§31) Peak Area Ratiobuffer chamber means the conc for free fraction
(§32) Peak Area Ratioplasma chamber means the conc for both free and bound fraction
(§33) Peak Area Ratiototal sample means the conc for starting sample before incubation

[5] = Plasma protein binding (equilibrium dialysis), human; type: in vitro ADME; details: pH 7.4, human plasma, 1 μM, 6 hours dialysis; for fraction unbound at 6 h, 1 μM: read-out: Mean % Bound Human (converted)
Procedure: as §13, §14, §15, §16, §17, §18, §19, §20, §21, §22, §23, §24, §25, §26, §27, §28, §29, §30, §31, §32, §33

[6] = Plasma protein binding (equilibrium dialysis), rat; type: in vitro ADME; details: pH 7.4, 6 hours dialysis; for fraction unbound at 6 h, 1 μM: read-out: Mean % Bound Rat (converted)
Procedure: as §13, §14, §15, §16, §17, §18, §19, §20, §21, §22, §23, §24, §25, §26, §27, §28, §29, §30, §31, §32, §33

Sequence of NTRK1-G595R (P04629 33-796 G595R): as the sequence (P04629 33-796) above, with G563R counted along it

Row | pIC50 (NTRK1-G595R) | pIC50 (TrkA kinase; numeric values) | pIC50 (Ba/F3-TPM3-NTRK1) | pIC50 (TrkA kinase; class symbols) | microsomal CLint at 2 μM [1] [µL/min/mg] | half-life at 2 μM [1] [min] | microsomal CLint at 2 μM [2] [µL/min/mg] | half-life at 2 μM [2] [min] | microsomal CLint at 2 μM [3] [µL/min/mg] | half-life at 2 μM [3] [min] | recovery at 6 h, 1 μM [4] [%] | fraction unbound at 6 h, 1 μM [4] | recovery at 6 h, 1 μM [5] [%] | fraction unbound at 6 h, 1 μM [5] | recovery at 6 h, 1 μM [6] [%] | fraction unbound at 6 h, 1 μM [6] | SMILES
1 | 6.65 | 8.96 | 8.47 | – | – | – | – | – | – | – | – | – | – | – | – | – | CN(C)c1cc2[nH]c(-c3cnn4ccc(N5CCC[C@@H]5c5cc(F)ccc5F)nc34)nc2cc1C#N [Compound 144, (R)-2-(5-(2-(2,5-difluorophenyl)pyrrolidin-1-yl)pyrazolo[1,5-a]pyrimidin-3-yl)-6-(dimethylamino)-1H-benzo[d]imidazole-5-carbonitrile]
2 | 6.93 | 9.22 | 8.88 | – | – | – | – | – | – | – | – | – | – | – | – | – | Fc1ccc(F)c([C@H]2CCCN2c2ccn3ncc(-c4nc5cc(CN6CCOCC6)ccc5[nH]4)c3n2)c1 [Compound 162, (R)-4-((2-(5-(2-(2,5-difluorophenyl)pyrrolidin-1-yl)pyrazolo[1,5-a]pyrimidin-3-yl)-1H-benzo[d]imidazol-5-yl)methyl)morpholine]
3 | 6.98 | – | 8.98 | ≥ 8.00 | 21 | 66 | 42.2 | 32.8 | 33.4 | 41.5 | – | – | – | – | – | – | CSc1cc2nc(-c3cnn4ccc(N5CCC[C@@H]5c5cc(F)ccc5F)nc34)[nH]c2cc1C#N [Compound 126, (R)-2-(5-(2-(2,5-difluorophenyl)pyrrolidin-1-yl)pyrazolo[1,5-a]pyrimidin-3-yl)-5-(methylthio)-1H-benzo[d]imidazole-6-carbonitrile]
4 | 7.05 | – | 8.66 | ≥ 8.00 | 45.2 | 30.7 | 46.6 | 29.7 | 97.6 | 14.2 | – | – | – | – | – | – | CS(=O)(=O)c1cc2nc(-c3cnn4ccc(N5CCC[C@@H]5c5cc(F)ccc5F)nc34)[nH]c2cc1C(N)=O [Compound 173, (R)-2-(5-(2-(2,5-difluorophenyl)pyrrolidin-1-yl)pyrazolo[1,5-a]pyrimidin-3-yl)-5-(methylsulfonyl)-1H-benzo[d]imidazole-6-carboxamide]
5 | 7.20 | 9.10 | 8.86 | – | – | – | – | – | – | – | – | – | – | – | – | – | OCc1cc2nc(-c3cnn4ccc(N5CCC[C@@H]5c5cc(F)ccc5F)nc34)oc2cc1F [Compound 94, (R)-(2-(5-(2-(2,5-difluorophenyl)pyrrolidin-1-yl)pyrazolo[1,5-a]pyrimidin-3-yl)-6-fluorobenzo[d]oxazol-5-yl)methanol]
6 | – | 9.15 | 8.48 | – | – | – | – | – | – | – | 98.6 | 0.0918 | 91.7 | 0.0868 | 92.4 | 0.109 | C[C@@H](O)c1nnc(-c2cnn3ccc(N4CCC[C@@H]4c4cc(F)ccc4F)nc23)[nH]1 [Compound 34, (R)-1-(5-(5-((R)-2-(2,5-difluorophenyl)pyrrolidin-1-yl)pyrazolo[1,5-a]pyrimidin-3-yl)-4H-1,2,4-triazol-3-yl)ethan-1-ol]
7 | – | 7.93 | – | – | – | – | – | – | – | – | 86.5 | 0.0817 | 85.9 | 0.126 | 82.5 | 0.164 | NC1(c2nnc(-c3cnn4ccc(N5CCC[C@@H]5c5cc(F)ccc5F)nc34)[nH]2)CCC1 [Compound 24, (R)-1-(5-(5-(2-(2,5-difluorophenyl)pyrrolidin-1-yl)pyrazolo[1,5-a]pyrimidin-3-yl)-4H-1,2,4-triazol-3-yl)cyclobutan-1-amine]
